This is an account of results in US20110092517A1, “Use of PPAR Delta Ligands for the Treatment or Prevention of Inflammation or Energy Metabolism/Production Related Diseases” (Cerenis Therapeutics S.A. & Nippon Chemiphar Co., Ltd., priority 2009, published 2011).

A value given as a limit tells only on which side of the number the result lay.

In series [1] the target is T1, human PPARα (Homo sapiens, UniProt Q07869).
T1 construct: human PPARα (amino acids 167-468); expressed in transfected cells; host or cells: CV-1
T1 sequence (Q07869 167-468): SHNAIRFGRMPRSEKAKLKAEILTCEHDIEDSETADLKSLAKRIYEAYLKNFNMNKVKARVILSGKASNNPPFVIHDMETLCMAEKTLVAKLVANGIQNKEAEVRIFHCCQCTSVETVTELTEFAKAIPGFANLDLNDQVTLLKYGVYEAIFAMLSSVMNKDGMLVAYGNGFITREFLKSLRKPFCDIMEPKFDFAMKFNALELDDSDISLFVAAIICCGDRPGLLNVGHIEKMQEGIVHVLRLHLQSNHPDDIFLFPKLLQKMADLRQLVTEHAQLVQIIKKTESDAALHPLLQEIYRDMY
Kind of series: GAL4-PPAR chimera receptor transactivation assay in CV-1 cells (Example 3). The series is classed as cell-based. The conditions noted are these: GAL4 DBD-hPPARα LBD chimera, read-out: Transactivation activity GAL 4 DBD-hPPAR LBD (EC50-Um) alpha. How it is done: (§1) MH100×4-tk-luc (2) was used as the reporter plasmid.
(§2) The luciferase and βGAL activity were measured according to the methods of Umesono, K. et al. (4) with slight modifications. A substrate reagent kit (Picagene, Toyo Ink) was used for the luciferase assay. Assays were performed in duplicate and triplicate for GAL4-chimeras and full-length receptors, respectively. Experiments were repeated at least four times.

Series [2] deals with T2, human PPARγ1 (Homo sapiens, UniProt P37231).
T2 construct: PPARγ1 (amino acids 176-477); expressed in transfected cells; host or cells: CV-1
T2 sequence (P37231 176-477 isoform P37231-2): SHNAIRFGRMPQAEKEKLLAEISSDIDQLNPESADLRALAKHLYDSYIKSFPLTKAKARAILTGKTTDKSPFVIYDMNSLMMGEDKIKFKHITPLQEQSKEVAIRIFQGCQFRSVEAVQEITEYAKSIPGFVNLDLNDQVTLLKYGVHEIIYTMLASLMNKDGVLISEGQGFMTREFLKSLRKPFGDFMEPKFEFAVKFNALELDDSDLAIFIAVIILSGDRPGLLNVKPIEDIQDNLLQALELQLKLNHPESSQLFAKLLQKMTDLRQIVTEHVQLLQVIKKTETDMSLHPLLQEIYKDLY
The description is as above. The series is classed as cell-based. The conditions noted are these: GAL4 DBD-hPPARγ LBD chimera, read-out: Transactivation activity GAL 4 DBD-hPPAR LBD (EC50-Um) gamma. How it is done:
as §1, §2

For series [3], the target named is T3, human PPARδ (Homo sapiens, UniProt Q03181).
T3 construct: PPARδ (amino acids 139-441); expressed in transfected cells; host or cells: CV-1
T3 sequence (Q03181 139-441): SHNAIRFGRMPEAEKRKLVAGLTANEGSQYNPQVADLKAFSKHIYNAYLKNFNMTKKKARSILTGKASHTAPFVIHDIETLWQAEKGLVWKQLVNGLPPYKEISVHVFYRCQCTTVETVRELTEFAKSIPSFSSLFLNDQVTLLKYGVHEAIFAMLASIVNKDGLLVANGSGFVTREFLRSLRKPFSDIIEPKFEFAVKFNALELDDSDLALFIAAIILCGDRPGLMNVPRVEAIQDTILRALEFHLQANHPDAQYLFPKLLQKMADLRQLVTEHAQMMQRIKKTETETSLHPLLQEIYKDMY
Described as above. The series is classed as cell-based. Conditions: GAL4 DBD-hPPARδ LBD chimera, read-out: Transactivation activity GAL 4 DBD-hPPAR LBD (EC50-Um) delta. The procedure: as §1, §2

The target of series [4] is T4, human PPARδ (Homo sapiens, UniProt Q03181).
T4 construct: expressed in transfected cells; host or cells: CV-1
T4 sequence (Q03181 1-441): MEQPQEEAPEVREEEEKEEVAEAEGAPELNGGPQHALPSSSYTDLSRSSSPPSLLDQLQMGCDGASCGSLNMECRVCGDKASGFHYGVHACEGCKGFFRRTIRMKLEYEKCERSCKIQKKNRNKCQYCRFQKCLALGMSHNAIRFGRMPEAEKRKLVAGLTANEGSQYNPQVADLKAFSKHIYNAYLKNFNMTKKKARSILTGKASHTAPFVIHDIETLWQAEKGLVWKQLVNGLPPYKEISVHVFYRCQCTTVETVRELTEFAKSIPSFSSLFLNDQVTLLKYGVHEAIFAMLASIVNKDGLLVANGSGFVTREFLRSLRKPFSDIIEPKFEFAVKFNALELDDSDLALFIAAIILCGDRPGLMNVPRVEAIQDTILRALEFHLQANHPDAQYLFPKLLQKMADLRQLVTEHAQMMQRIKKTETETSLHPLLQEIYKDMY
T4 sequence (P19793 1-462 partner): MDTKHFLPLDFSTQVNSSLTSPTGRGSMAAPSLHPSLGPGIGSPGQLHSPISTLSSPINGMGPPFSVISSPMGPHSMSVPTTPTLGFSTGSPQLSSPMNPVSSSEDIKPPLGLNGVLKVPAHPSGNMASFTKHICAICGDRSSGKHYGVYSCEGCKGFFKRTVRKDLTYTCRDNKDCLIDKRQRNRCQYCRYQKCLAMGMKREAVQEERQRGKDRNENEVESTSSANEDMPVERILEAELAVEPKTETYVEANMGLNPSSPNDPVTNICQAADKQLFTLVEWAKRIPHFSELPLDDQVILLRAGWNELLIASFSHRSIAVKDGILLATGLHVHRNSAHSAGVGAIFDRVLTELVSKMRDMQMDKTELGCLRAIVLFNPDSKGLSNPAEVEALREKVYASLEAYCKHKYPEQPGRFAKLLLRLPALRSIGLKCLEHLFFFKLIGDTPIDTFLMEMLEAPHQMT
The experiment in a line: Full-length receptor transactivation assay (PPREx3-tk-luc, hRXRα) in CV-1 cells. The series is classed as cell-based. Conditions: full-length hPPARδ + RXRalpha, read-out: Transactivation activity FULL-hPPAR + mRXRalpha (EC50-Um) delta. How it is done:
(§3) Receptor expression plasmids: Full-length coding sequences for human PPARα, PPARγ and PPARδ were inserted into the mammalian expression vector pcDNA3.1+ or pCMX. The full-length coding sequence for human RXRα was inserted into pcDNA3.1+.
(§4) Reporter plasmid: PPREx3-tk-luc (3) was used as the reporter plasmid. It contains three copies of rat Acyl-CoA oxidase peroxisome proliferator response element (PPRE) sequence (AGGACA-A-AGGTCA).
as §2

Series [5] has as its target T5, human PPARα (Homo sapiens, UniProt Q07869).
T5 construct: expressed in transfected cells; host or cells: CV-1
T5 sequence (Q07869 1-468): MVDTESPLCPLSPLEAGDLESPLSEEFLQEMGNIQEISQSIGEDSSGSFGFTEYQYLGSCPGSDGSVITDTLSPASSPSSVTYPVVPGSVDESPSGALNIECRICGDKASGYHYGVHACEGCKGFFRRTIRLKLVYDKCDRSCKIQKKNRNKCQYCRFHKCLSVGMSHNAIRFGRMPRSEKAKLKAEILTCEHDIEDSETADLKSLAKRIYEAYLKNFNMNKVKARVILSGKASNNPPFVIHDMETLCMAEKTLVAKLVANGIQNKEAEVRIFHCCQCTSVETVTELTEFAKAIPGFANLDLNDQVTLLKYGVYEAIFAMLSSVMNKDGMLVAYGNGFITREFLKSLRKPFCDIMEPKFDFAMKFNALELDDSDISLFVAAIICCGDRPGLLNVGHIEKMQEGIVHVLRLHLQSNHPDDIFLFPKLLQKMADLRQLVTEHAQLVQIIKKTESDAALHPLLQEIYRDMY
T5 sequence (P19793 1-462 partner): T4 sequence (P19793 1-462 partner)
Described as above. The series is classed as cell-based. The conditions noted are these: full-length hPPARα + RXRalpha, read-out: Transactivation activity FULL-hPPAR + mRXRalpha (EC50-Um) alpha. The procedure:
as §3, §4, §2

In series [6] the target is T6, human PPARγ (Homo sapiens, UniProt P37231).
T6 construct: expressed in transfected cells; host or cells: CV-1
T6 sequence (P37231 1-505): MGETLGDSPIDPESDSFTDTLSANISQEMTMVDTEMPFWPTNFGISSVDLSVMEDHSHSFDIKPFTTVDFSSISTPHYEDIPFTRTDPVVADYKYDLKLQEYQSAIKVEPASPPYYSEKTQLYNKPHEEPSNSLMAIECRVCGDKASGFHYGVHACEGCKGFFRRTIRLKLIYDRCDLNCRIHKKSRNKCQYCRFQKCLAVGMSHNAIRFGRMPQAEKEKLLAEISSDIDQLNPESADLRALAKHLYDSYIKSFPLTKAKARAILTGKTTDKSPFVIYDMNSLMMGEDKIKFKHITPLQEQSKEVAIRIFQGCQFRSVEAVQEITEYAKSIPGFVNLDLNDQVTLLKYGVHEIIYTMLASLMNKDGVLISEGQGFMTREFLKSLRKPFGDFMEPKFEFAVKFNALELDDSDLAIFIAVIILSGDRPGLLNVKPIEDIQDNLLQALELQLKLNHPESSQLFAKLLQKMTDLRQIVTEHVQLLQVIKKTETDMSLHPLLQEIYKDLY
T6 sequence (P19793 1-462 partner): T4 sequence (P19793 1-462 partner)
Described as above. The series is classed as cell-based. Conditions: full-length hPPARγ + RXRalpha, read-out: Transactivation activity FULL-hPPAR + mRXRalpha (EC50-Um) gamma. The procedure:
as §3, §4, §2

For series [7] the following is noted: toxicological dosages for 10 days, cited from earlier work; for Peroxisome proliferation in muscle and liver: WT mice.

With `Cc1cc(C(=O)CCc2nc(-c3ccc(Cl)cc3O)oc2C(C)C)ccc1OCC(=O)O`, the EC50 in series [1] is greater than 10 µM; in series [2], greater than 10 µM; in series [3], 0.032 µM; in series [4], 0.058 µM; in series [5], 3.8 µM; in series [6] it was 9.8 µM.
Regarding `Cc1cc2c(CCc3nc(-c4ccc(Cl)cc4Cl)oc3C(C)C)noc2cc1OCC(=O)O`, the EC50 in series [1] is greater than 10 µM; in series [2] it was greater than 10 µM; in series [3], 0.025 µM; in series [4], 0.007 µM; in series [5], 7.8 µM; in series [6], greater than 10 µM.
As to `Cc1cc(C(=O)/C=C/c2sc(-c3ccc(C(F)(F)F)cc3)nc2C(C)C)ccc1OCC(=O)O`, the EC50 in series [1] was greater than 10 µM; in series [2] it was greater than 10 µM; in series [3], 0.045 µM; in series [4], 0.019 µM; in series [5] it was greater than 10 µM; in series [6], greater than 10 µM.
Turning to `Cc1cc(C(=O)CCc2sc(-c3ccc(C(F)(F)F)cc3)nc2C(C)C)ccc1SCC(=O)O`, the EC50 worked out at 3.3 µM in series [1], 6.7 µM in series [2] and 0.018 µM in series [3].
On to `Cc1cc(C(O)CCc2sc(-c3ccc(C(F)(F)F)cc3)nc2C(C)C)ccc1OCC(=O)O` (stereo not drawn), for which the EC50 was greater than 10 µM in series [1]; greater than 10 µM in series [2]; greater than 1 µM in series [3]; greater than 0.3 µM in series [4]; greater than 8 µM in series [5]; greater than 8 µM in series [6].
`Cc1cc([C@H](O)CCc2sc(-c3ccc(C(F)(F)F)cc3)nc2C(C)C)ccc1OCC(=O)O`: the EC50 in series [1] is greater than 10 µM; in series [2] it was greater than 10 µM; in series [3] it was greater than 0.7 µM.
Take `Cc1cc(SCc2sc(-c3ccc(C(F)(F)F)c(F)c3)nc2C)ccc1OCC(=O)O` [GW0742]: in series [7], the “Peroxisome proliferation in muscle and liver” value was “significant peroxisome proliferation”. In addition, the “Incidence and severity of skeletal myopathy” value in series [7] (WT vs PPAR-α KO mice) is reported as “greater in WT mice”.
For the molecule `Cc1cccc(Nc2cc(Cl)nc(SCC(=O)O)n2)c1C` [WY-14,643], in series [7], the “Peroxisome proliferation in muscle and liver” value was “significant peroxisome proliferation”.
For the molecule `Cc1cc(C(=O)CCc2sc(-c3ccc(C(F)(F)F)cc3)nc2C(C)C)ccc1OCC(=O)O` [drawing 63], the EC50 is greater than 10 µM in series [1]; greater than 8 µM in series [2]; 0.018 µM in series [3]; 0.0022 µM in series [4]; 3.2 µM in series [5]; 5.8 µM in series [6].
